This is an account of results in patent EP3928777A1, “4,5-DIHYDRO-OXAZOL-2-YLAMINE DERIVATIVES FOR USE IN THE PREVENTION OR TREATMENT OF ALCOHOL USE DISORDER” (Instytut Biologii Doswiadczalnej im. Marcelego Nenckiego …, priority 2020, dated 2021).

Series [1] relates to cocaine-dependent or binge eating animals. The conditions noted are these: cited from earlier work.
Series [2] deals with mice. Kind of series: Motivation to drink alcohol: progressive nose-poke test in IntelliCages. The format is in vivo. The conditions noted are these: 10 mg/kg bw intraperitoneal, 20% alcohol, attempts measured over 20 hours, 3 tests, Fig. 5. As for the experimental part:
The effect of RO5256390 administration on motivation to drink alcohol was also assessed experimentally. In this experiment a new group of animals was used, these were 13 animals that underwent a three-month adaptive training to drink alcohol (20%) in IntelliCages. The motivation to drink alcohol was then assessed for each animal by conducting 3 tests. For the purposes of the test, the IntelliCage was designed in such a way that access to alcohol for a given animal was only possible, with a certain number of so-called "nose-pokes", meaning cutting the laser beam with the snout when trying to reach the alcohol bottle. In order to drink alcohol, the animal must first cut the beam twice, then 4, 8, 12, 16 times etc. After the required number of nose-pokes are made, the alcohol-blocking door opens. The more attempts to get into the alcohol bottle and the greater the number of beam intersection events achieved, the greater the motivation to drink alcohol. Each test started when half of the water bottles was replaced with 20% alcohol bottles. During the next 20 hours the number of drinking attempts was measured for each animal. After 3 series of motivational tests, which were carried out at weekly intervals, the animals were divided into two experimental groups. […]

A short description of series [3]: Solubility in the injection vehicle. The format is physicochemical. The conditions noted are these: solution of 5% ethanol and 10% collyphor, for an exemplary dose of 10 mg/kg body weight, intraperitoneal administration. As to the method:
(§1) The compound of Formula II is additionally easy to prepare and formulate (well soluble in a solution of 5% ethanol and 10% collyphor for an exemplary dose of 10 mg/kg body weight in an intraperitoneal administration), it appears to be non-toxic in animal models.

In series [4] the test system is C57BL/6 mouse. As to the kind of experiment: Amount of alcohol (20%) consumed by alcohol-trained mice in IntelliCages after intraperitoneal injection. The format is in vivo. The conditions noted are these: versus vehicle control group. As to the method:
The study involved 30 C57BL/6 mouse subjects that had undergone a two-month, earlier adaptive training to drink alcohol (20%) in IntelliCages (Fig. 1), under typical living conditions (temperature: 21-23°C, humidity 50-60%, 12/12 light-dark cycle). During the adaptive training, the mice had constant access to food and water except for: • 1. 25 days, during which, 2 hours after the beginning of the dark phase, all water bottles were replaced for 3 hours with bottles containing 20% alcohol (no access to clean water at all). • 2. 15 days, during which, 2 hours after the beginning of the dark phase, half of the water bottles were replaced for 3 hours with bottles containing 20% alcohol (possibility to choose water or alcohol). […]
During the adaptive training, the amount of alcohol consumed was recorded for each animal separately. […] The degree of preference for drinking alcohol was determined according to the following criteria: • high-drinkers: on average from 100 to 200 licks of alcohol, with a choice between water and alcohol (3 hour session); • medium-drinkers: on average from 50 to 100 licks of alcohol, with a choice between water and alcohol; (3 hour session); • low-drinkers: on average from 0 to 50 licks of alcohol, with a choice between water and alcohol; (3 hour session); […]

Series [5] deals with animal models. As to the kind of experiment: Toxicity in animal models. Format: in vivo. As to the method: as §1

In the case of `CC[C@@H](C[C@H]1COC(N)=N1)c1ccccc1` [RO5256390], the suppressing compulsive behavior result in series [1] is on record as “effective in suppressing compulsive behavior”. For the same compound, the “motivation to drink alcohol (number of alcohol drinking attempts)” value in series [2] is “reduces the motivation to drink alcohol”. Further, the solubility entry in series [3] is reported as “well soluble”. Besides, the “amount of consumed alcohol during 20 hours after injection” value in series [4] (10 mg/kg bw intraperitoneal, 20% alcohol, Fig. 3) was “statistically significant lower amount of alcohol”. Moreover, the “amount of consumed alcohol in the 20 hours post injection after a 10 day abstinence period” value in series [4] (access to alcohol blocked for 10 days, treated as previously (10 mg/kg bw i.p.), Fig. 4) is “statistically significantly lower amount of alcohol”. The toxicity entry in series [5] is “non-toxic”.
